Test [1] can be described thus: Example 6 feeding test in growing piglets, growth and diarrhoea. It is filed as in vivo. The method, then: An amount of a product obtained from baking yeast by hydrolytic treatment, was added to the fodder of growing piglets. The fodder for the reference group contained Olaqvindox chemotherapeutic substance, 50 mg/kg. In the fodder for the yeast group, instead of Olaqvindox, yeast fraction was added in an amount of 0.5%.

Test [2] in a line: Example 7 feeding test in growing pigs. It is filed as in vivo. As to conditions: Olagvindox 50 ppm, 33 test days. The method, then:
An amount of a product obtained from baking yeast by hydrolytic treatment, was added to the fodder of growing pigs. The measurement was implemented as in the preceding example.

Test [3] in a line: Example 5 feeding test, development of piglets. It is filed as in vivo, pigs. From the text:
In this test, four equal groups of pigs were fed with the following fodders:
Group 1: basic fodder (reference)
Group 2: basic fodder+40 ppm Avilamysine
Group 3: basic fodder+product prepared from yeast by hydrolytic treatment, in an amount of 0.5 w-% (of dry matter)
Group 4: basic fodder+product prepared from yeast by hydrolytic treatment, in an amount of 1.0 w-% (of dry matter).

Where [4] appears, read: group 2, basic fodder + 40 ppm Avilamysine.

Marks after values point to notes of the source that are not given here.

For the molecule `Cc1c(C(=O)NCCO)[n+]([O-])c2ccccc2[n+]1[O-]` [Olaqvindox], in test [1] (Olaqvindox 50 ppm in fodder), the “Additional growth” value is given as 255 g/day and the Fodder efficiency kg/kg is 1.61 kg/kg. The “Final weight” value in test [1] (Olaqvindox 50 ppm in fodder, initial weight 7.10 kg) is 12.47 kg. In test [1] (Olaqvindox 50 ppm, average, 1 = normal faeces, 2 = loose faeces, 3 = watery diarrhoea), the Diarrhoea index is given as 2.5. Moreover, in test [1] (Olaqvindox 50 ppm, treated with an antibiotic or with zinc oxide because of diarrhoea), the “Treatments for diarrhoea, % of farrows” value was 100 % of farrows. Also, in test [2], the Fodder efficiency kg/kg amounted to 2.07 kg/kg. Moreover, the “Additional growth, g/day” value in test [2] (initial weight 21.7 kg) is on record as 777^a g/day.

Take Avilamysine: the “effect on growth and fodder consumption compared with the reference group” value in test [3] (40 ppm Avilamysine) was “increased the growth and fodder consumption effectively”. For the same molecule, in test [3] (setting [4]), the “ADG” value is 502 g/day and the “FCR kg fodder/kg Weight increase” value stood at 1.81 kg fodder/kg. Besides, the “Final weight” value in test [3] (group 2, basic fodder + 40 ppm Avilamysine, starting weight 10.6 kg) turned out to be 24.1 kg.

The record behind these values is patent publication US20020061345A1, “PROCEDURE FOR PREPARING A FOOD ADDITIVE, AND AN ADDITIVE AND ITS USE” (priority 1996, published 2002).
